In patent US6372297B1, “Wood preservative oxathiazines” (Uniroyal Chemical Company, Inc., priority 1993, dated 2002):
Values after ≈ are worked out from the molar mass of the structure shown. Like-named read-outs stand apart in the source and are kept apart here.

Columns and labels:
[1] = system: molds and blue-stain fungi; experiment: In vitro activity against molds and blue-stain fungi, poison plate assay (MIC); format: cell-based; settings: malt extract agar, complete inhibition
Procedure: The effect of the representative compounds on the growth of certain molds and blue-strain fungi were determined using a poison plate assay according to the following procedure: The solutions of the representative compounds prepared above were further diluted with sterile water to desired concentrations and poured into Petri dishes. Malt extract agar medium was then added aseptically to the Petri dishes and to Petri dishes containing no compound (controls). The Petri dishes were then shaken to provide a uniform distribution of the agar medium. Each Petri dish containing compound and each control Petri dish, was then inoculated with a fungus and incubated for a period of time sufficient to permit complete growth of the fungus in the respective control Petri dish. The Petri dishes containing compound were then examined to determine the amount of inhibition of fungi for each concentration of compound tested.

[2] = system: blue-stain fungi and molds; experiment: Activity against blue-stain fungi and molds in a stick test (threshold concentrations); settings: beech sticks, 22° C., 90% relative humidity
How it was run: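 Wood sticks soaked 3 h in compound serially diluted in 50% ethanol, dried, then inoculated with fungal or spore suspension. Incubated at 22° C and 90% relative humidity until untreated controls grew, then growth scored 0 (none) to 4 (>50% surface covered).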

melting point: 113 to 114 °C
Compound: O=S1(=O)CCON=C1c1ccc(Cl)s1 [Compound 61, 3-(5-chloro-2-thienyl)-5,6-dihydro-1,4,2-oxathiazine-4,4-dioxide]
MIC ([1]; A. amstelodami, read-out: MIC (ppm) against A. amstelodami): 5 µg/mL (≈ 19.9 µM)
MIC ([1]; Aspergillus niger, A. niger, read-out: MIC (ppm) against A. niger): < 1 µg/mL
MIC ([1]; Aspergillus versicolor, A. versicolor, read-out: MIC (ppm) against A. versicolor): 2.5 µg/mL (≈ 9.93 µM)
MIC ([1]; Aureobasidium pullulans, A. pullulans, read-out: MIC (ppm) against A. pullulans): 10 µg/mL (≈ 39.7 µM)
MIC ([1]; C. pilifera, read-out: MIC (ppm) against C. pilifera): 2.5 µg/mL (≈ 9.93 µM)
MIC ([1]; Cladosporium cladosporioides, C. cladosporioides, read-out: MIC (ppm) against C. cladosporioides): 10 µg/mL (≈ 39.7 µM)
MIC ([1]; Fusarium solani, F. solani, read-out: MIC (ppm) against F. solani): 5 µg/mL (≈ 19.9 µM)
MIC ([1]; Geotrichum candidum, G. candidum, read-out: MIC (ppm) against G. candidum): 10 µg/mL (≈ 39.7 µM)
MIC ([1]; P. purpurogenum, read-out: MIC (ppm) against P. purpurogenum): 5 µg/mL (≈ 19.9 µM)
MIC ([1]; P. violacea, read-out: MIC (ppm) against P. violacea): 25 µg/mL (≈ 99.3 µM)
MIC ([1]; Paecilomyces variotii, P. variotii, read-out: MIC (ppm) against P. variotii): 5 µg/mL (≈ 19.9 µM)
MIC ([1]; S. atra, read-out: MIC (ppm) against S. atra): 2.5 µg/mL (≈ 9.93 µM)
MIC ([1]; S. entoxylina, read-out: MIC (ppm) against S. entoxylina): 10 µg/mL (≈ 39.7 µM)
MIC ([1]; Trichoderma viride, T. viride, read-out: MIC (ppm) against T. viride): 10 µg/mL (≈ 39.7 µM)
MIC ([1]; U. atrum, read-out: MIC (ppm) against U. atrum): 10 µg/mL (≈ 39.7 µM)
Threshold concentration (ppm), A. niger, score 0 ([2]; A. niger, minimum concentration to obtain score 0): <250 ppm
Threshold concentration (ppm), A. niger, score 1-2 ([2]; A. niger, minimum concentration to obtain score 1-2): <250 ppm
Threshold concentration (ppm), Aureobasidium, score 0 ([2]; Aureobasidium, minimum concentration to obtain score 0): >1000 ppm
Threshold concentration (ppm), Aureobasidium, score 1-2 ([2]; Aureobasidium, minimum concentration to obtain score 1-2): 250-500 ppm
Threshold concentration (ppm), Sclerophoma, score 0 ([2]; Sclerophoma, minimum concentration to obtain score 0): 100 ppm
Threshold concentration (ppm), Sclerophoma, score 1-2 ([2]; Sclerophoma, minimum concentration to obtain score 1-2): <50 ppm
Threshold concentration (ppm), Trichoderma, score 0 ([2]; Trichoderma, minimum concentration to obtain score 0): 2500 ppm
Threshold concentration (ppm), Trichoderma, score 1-2 ([2]; Trichoderma, minimum concentration to obtain score 1-2): 1000-2500 ppm
